Key:
Format in all cases: cell-based
[1] = tested on: H1975 human NSCLC adenocarcinoma cells; experiment: Cell proliferation assay, H1975 (drug-resistant mutant ERBB1, T790M/L858R); conditions: for GI50: Homo sapiens, NCI-H1975, 72 hrs compound treatment
Description: (§1) The biological activity of a test compound was determined using cell proliferation assays. The activity against wild-type ERBB1 was determined using A431 human epidermoid carcinoma cells (ATCC) and human epidermal keratinocytes, neonatal, or HEKn cells (ATCC).
(§2) A431 cells were grown in DMEM (Invitrogen) supplemented with 10% FBS (Lonza), 1% penicillin-streptomycin, and 2 mM glutamine (Invitrogen). HEKn cells were grown in EPILIFE® (Invitrogen) supplemented with HKGS (Invitrogen). […] Cells were maintained and propagated at 37° C. and 5% CO2 in a humidified cell culture incubator. Aliquots of cells from early passages were preserved for liquid nitrogen storage. Frozen vials of cells were thawed at 37° C. water bath. Cells were spun to remove freezing medium. The newly revived frozen cells were adapted in culture for 10 days before used for compound testing. Cells used in the assay were less than 20 subculture passages or 3 months in culture.
(§3) The test compounds were dissolved in dimethylsulfoxide (DMSO) and stored at −20° C. before testing. […] The cells were placed in a culture incubator overnight. Next day, test compounds in DMSO were added to the cells and placed back in the culture incubator for 72 hrs. In the meantime, the cell numbers at time zero of the compound treatment (T0) was measured by EnerCount (Codex BioSolutions). At the end of the compound treatment, the cell numbers were again measured by EnerCount as T72 values. The untreated controls (Ctrl) were cell numbers recorded from the 0.1% DMSO treatment. The percent growth inhibition by the test compound was calculated by the formula: (1−(T72−T0)/(Ctrl−T0))×100.
(§4) The results are summarized in Tables 1 and 2, wherein A represents a value no greater than 500 nM, B represents a value greater than 500 nM but no greater than 1 μM, C represents a value greater than 1 μM but no greater than 5 μM, and D represents a value greater than 5 μM; and wherein A′ represents a ratio of greater than 10, B′ represents a ratio of no greater than 10 but no less than 5, C′ represents a ratio of no greater than 5 but no less than 2, and D′ represents a ratio of no greater than 2.

[2] = tested on: human epidermal keratinocytes, neonatal, or HEKn cells; experiment: Cell proliferation assay, HEKn (wild-type ERBB1); conditions: Keratinocyte, 72 hrs compound treatment
Description: as §1, §2, §3, §4

[3] = tested on: A431 human epidermoid carcinoma cells; experiment: Cell proliferation assay, A431 (wild-type ERBB1); conditions: A-431, 72 hrs compound treatment, class symbols
Description: as §1, §2
as §3, with “(1−(T72−T0)/(Ctrl−T0))×100. […]” for “(1−(T72−T0)/(Ctrl−T0))×100.”

[4] = tested on: HCC827 human NSCLC adenocarcinoma cells; experiment: Cell proliferation assay, HCC827 (mutant ERBB1, exon 19 deletion); conditions: for GI50: Homo sapiens, HCC827, 72 hrs compound treatment
Description: as §1, §2, §3, §4

SMILES	GI50 ([1]; class symbols) [nM]	GI50 ([2]; class symbols) [nM]	GI50 [3] [nM]	GI50 ([4]; class symbols) [nM]	GI50 ([1]; numeric values, unit inferred) [nM]	Selectivity Ratio (Wild-type ERBB1/Mutant ERBB1) HEKn/H1975 ([1]; ratio of GI50 HEKn/H1975)	GI50 ([2]; numeric values, unit inferred) [nM]	GI50 ([4]; numeric values, unit inferred) [nM]	Selectivity Ratio (Wild-type ERBB1/Mutant ERBB1) HEKn/HCC827 ([4]; ratio of GI50 HEKn/HCC827)
C=CC(=O)N1CCCC[C@@H](n2c(NC(=O)c3ccnc(C(F)(F)F)c3)nc3ccc4c(c32)OCCO4)C1 [B1, (R)—N-(1-(1-acryloylazepan-3-yl)-7,8-dihydro-1H-[1,4]dioxino[2′,3′:3,4]benzo[1,2-d]imidazol-2-yl)-2-(trifluoromethyl)isonicotinamide]	< 500	> 5000	1000 to 5000	< 500	–	–	–	–	–
C=CC(=O)N1CCCC[C@@H](n2c(NC(=O)c3ccnc(OC)c3)nc3ccc4c(c32)OCCO4)C1 [C2, (R)—N-(1-(1-acryloylazepan-3-yl)-7,8-dihydro-1H-[1,4]dioxino[2′,3′:3,4]benzo[1,2-d]imidazol-2-yl)-2-methoxyisonicotinamide]	< 500	1000 to 5000	1000 to 5000	< 500	–	–	–	–	–
C=CC(=O)N1CCCC[C@@H](n2c(NC(=O)c3ccnc(C)c3)nc3ccc4c(c32)OCCO4)C1 [C1, (R)—N-(1-(1-acryloylazepan-3-yl)-7,8-dihydro-1H-[1,4]dioxino[2′,3′:3,4]benzo[1,2-d]imidazol-2-yl)-2-methylisonicotinamide]	< 500	1000 to 5000	1000 to 5000	< 500	–	–	–	–	–
C=CC(=O)Nc1cccc(Nc2nc(Nc3ccc(N4CCN(C(C)=O)CC4)cc3OC)ncc2C(F)(F)F)c1 [CO-1686, reference compound]	–	–	–	–	109	A′ (A′ represents a ratio of greater than 10)	2500	32	A′ (A′ represents a ratio of greater than 10)

Source: patent US11713322B2, “Benzimidazole derivatives as ERBB tyrosine kinase inhibitors for the treatment of cancer” (Capella Therapeutics, Inc., priority 2014, dated 2023)
